The source of these data is patent US10370366B2 (Flatley Discovery Lab, LLC, priority 2013, dated 2019).

Some results are limits rather than exact numbers.

Usually EC50 stands for the concentration that produces a half-maximal response.

The assay deals with T1, human F508del CFTR (Homo sapiens, UniProt P13569, DEL508-508).
T1 construct: expressed in transfected cells; host or cells: Fisher Rat Thyroid (FRT) cells
The assay is described as follows: CFTR-YFP High Throughput Assay. Particulars: FRT cells expressing human F508del CFTR and YFP; for Emax: EMax normalized to the positive control, read-out: % Efficacy. Type of assay: cell-based. In outline:
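FRT cells stably co-expressing human F508del CFTR and halide-sensitive YFP-H148Q/I152L; for correction, compound (2 nM-40 μM) incubated 24-26 h at 37° C, washed, then stimulated 60-120 min at RT with 20 μM forskolin plus 30 μM potentiator P3. Iodide-induced YFP quench (Ex 500/Em 540 nm) recorded; quench rates least-squares fitted.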

T1 sequence (P13569 with tags, fused parts or gaps DEL508-508): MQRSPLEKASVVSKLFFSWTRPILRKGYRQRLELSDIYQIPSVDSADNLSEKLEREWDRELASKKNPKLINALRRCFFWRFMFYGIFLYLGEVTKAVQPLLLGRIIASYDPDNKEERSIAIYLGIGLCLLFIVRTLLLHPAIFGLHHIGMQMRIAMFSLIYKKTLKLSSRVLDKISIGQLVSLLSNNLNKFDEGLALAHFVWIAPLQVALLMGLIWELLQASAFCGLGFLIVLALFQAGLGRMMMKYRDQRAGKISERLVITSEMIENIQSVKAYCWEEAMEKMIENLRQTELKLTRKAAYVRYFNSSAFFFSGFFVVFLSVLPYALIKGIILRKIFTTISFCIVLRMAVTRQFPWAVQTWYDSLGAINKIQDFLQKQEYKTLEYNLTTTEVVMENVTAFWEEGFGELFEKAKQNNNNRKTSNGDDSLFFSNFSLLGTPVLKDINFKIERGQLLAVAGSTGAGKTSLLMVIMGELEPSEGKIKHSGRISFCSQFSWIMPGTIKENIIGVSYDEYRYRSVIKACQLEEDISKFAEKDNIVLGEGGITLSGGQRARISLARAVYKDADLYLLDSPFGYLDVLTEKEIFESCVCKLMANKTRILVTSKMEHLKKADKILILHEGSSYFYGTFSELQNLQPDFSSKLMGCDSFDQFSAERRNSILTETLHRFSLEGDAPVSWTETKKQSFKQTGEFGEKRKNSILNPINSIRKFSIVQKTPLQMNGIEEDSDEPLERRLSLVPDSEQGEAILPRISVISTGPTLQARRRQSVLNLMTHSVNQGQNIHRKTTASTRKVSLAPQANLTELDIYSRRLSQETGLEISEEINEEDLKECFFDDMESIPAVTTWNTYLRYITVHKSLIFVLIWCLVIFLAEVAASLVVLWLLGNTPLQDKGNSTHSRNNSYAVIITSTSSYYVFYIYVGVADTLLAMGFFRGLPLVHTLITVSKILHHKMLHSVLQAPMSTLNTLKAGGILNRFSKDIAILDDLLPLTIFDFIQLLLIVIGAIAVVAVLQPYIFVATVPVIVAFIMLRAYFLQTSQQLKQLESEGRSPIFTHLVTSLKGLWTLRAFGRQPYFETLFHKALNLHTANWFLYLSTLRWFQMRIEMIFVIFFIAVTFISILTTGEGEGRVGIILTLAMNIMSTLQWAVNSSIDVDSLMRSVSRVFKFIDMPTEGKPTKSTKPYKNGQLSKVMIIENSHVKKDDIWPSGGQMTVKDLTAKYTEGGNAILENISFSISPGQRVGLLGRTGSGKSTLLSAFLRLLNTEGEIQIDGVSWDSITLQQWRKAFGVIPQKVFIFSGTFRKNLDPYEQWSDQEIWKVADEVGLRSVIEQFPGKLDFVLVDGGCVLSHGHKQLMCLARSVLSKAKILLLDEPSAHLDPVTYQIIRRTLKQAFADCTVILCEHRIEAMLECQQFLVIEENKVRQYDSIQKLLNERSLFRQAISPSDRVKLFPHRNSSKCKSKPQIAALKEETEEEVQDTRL

As for `CCN(C(=O)c1nn(C(C)c2ccccc2)c(=O)c2c1c1c(C)cccc1n2C)c1ccccc1` (stereo not shown) [Example 218, N-ethyl-5,9-dimethyl-4-oxo-N-phenyl-3-(1-phenylethyl)-4,5-dihydro-3H-pyridazino[4,5-b]indole-1-carboxamide], the Emax was greater than 80% and the EC50 is less than 10 µM. For the compound `CCN(C(=O)Cn1nc(Cc2cccnc2)c2cccc(OC3CCCCC3)c2c1=O)c1ccc2c(c1)OC(F)(F)O2` [Example 59, 2-(8-(cyclohexyloxy)-1-oxo-4-(pyridin-3-ylmethyl)phthalazin-2(1H)-yl)-N-(2,2-difluorobenzo[d][1,3]dioxol-5-yl)-N-ethylacetamide], the Emax was in the range of 30 to 80% and the EC50 was in the range of 10 to 20 µM.

With `CCN(C(=O)c1nn(-c2ccc(C)cc2)c(=O)c2c1c1ccc(Cl)cc1n2C)c1ccccc1` [Example 166, 7-chloro-N-ethyl-5-methyl-4-oxo-N-phenyl-3-(p-tolyl)-4,5-dihydro-3H-pyridazino[4,5-b]indole-1-carboxamide], the Emax fell in the range of 30 to 80% and the EC50 was less than 10 µM.

In the case of `CCN(C(=O)c1nn(-c2ccc(C)cc2)c(=O)c2c1c1sc(C)cc1n2C)c1ccccc1` [Example 245, N-ethyl-2,4-dimethyl-5-oxo-N-phenyl-6-(p-tolyl)-5,6-dihydro-4H-thieno[2′,3′:4,5]pyrrolo[2,3-d]pyridazine-8-carboxamide], the Emax lay within 10 to 30% and the EC50 is less than 10 µM. The like results for `COc1ccc(C2(C(=O)Cn3nc(-c4cccc(Cl)c4)c4ccc(OC)cc4c3=O)CC2)cc1` [Example 251, 4-(3-chlorophenyl)-7-methoxy-2-(2-(1-(4-methoxyphenyl)cyclopropyl)-2-oxoethyl)phthalazin-1(2H)-one] were, in that order, 30 to 80% and less than 10 µM. Take `CCN(C(=O)c1nn(C2CCN(C)CC2)c(=O)c2c1c1ccccc1n2C)c1ccccc1` [Example 199, N-ethyl-5-methyl-3-(1-methylpiperidin-4-yl)-4-oxo-N-phenyl-4,5-dihydro-3H-pyridazino[4,5-b]indole-1-carboxamide]: the Emax lay in the range of 10 to 30% and the half-maximal effective concentration (EC50) is greater than 20 µM. The like results for `CCN(CC)C(=O)c1nn(CC(=O)N(CC)c2cccc(Cl)c2)c(=O)c2c1c1ccccc1n2C` [Example 213, 3-(2-((3-chlorophenyl)(ethyl)amino)-2-oxoethyl)-N,N-diethyl-5-methyl-4-oxo-4,5-dihydro-3H-pyridazino[4,5-b]indole-1-carboxamide] were, in that order, 30 to 80% and less than 10 µM. Consider `CCN(C(=O)Cn1nc(Cc2cccnc2)c2ccccc2c1=O)c1ccc2c(c1)OC(F)(F)O2` [Example 26, N-(2,2-difluorobenzo[d][1,3]dioxol-5-yl)-N-ethyl-2-(1-oxo-4-(pyridin-3-ylmethyl)phthalazin-2(1H)-yl)acetamide], for which the Emax lay within 30 to 80%.

`Cc1ccc(-n2nc(C(=O)N3CCCCC3)c3c4ccccc4n(C)c3c2=O)cc1` [Example 150, 5-methyl-1-(piperidine-1-carbonyl)-3-p-tolyl-3H-pyridazino [4,5-b]indol-4(5H)-one]: the Emax lay within 30 to 80%. On to `CCN(C(=O)c1nn(-c2ccc(OC)c(Cl)c2)c(=O)c2c1c1ccccc1n2C)c1ccccn1` [Example 192, 3-(3-chloro-4-methoxyphenyl)-N-ethyl-5-methyl-4-oxo-N-(pyridin-2-yl)-4,5-dihydro-3H-pyridazino[4,5-b]indole-1-carboxamide], for which the Emax is 30 to 80% and the EC50 is less than 10 µM. For `Cn1c2ccccc2c2c(-c3ccccc3)nn(-c3ccccc3F)c(=O)c21` [Example 237, 3-(2-fluorophenyl)-5-methyl-1-phenyl-3H-pyridazino[4,5-b]indol-4(5H)-one] the same measures were 10 to 30% and greater than 20 µM.

With `CC(C)N(C(=O)c1nn(-c2cnc3ccccc3c2)c(=O)c2c1c1ccccc1n2C)c1ccccc1` [Example 191, N-isopropyl-5-methyl-4-oxo-N-phenyl-3-(quinolin-3-yl)-4,5-dihydro-3H-pyridazino[4,5-b]indole-1-carboxamide], the Emax lay within 30 to 80% and the EC50 is greater than 20 µM. For `CCN(CC)C(=O)c1nn(CC(O)COCc2ccccc2)c(=O)c2c1c1c(F)cccc1n2C` (stereo not shown) [Example 234, 3-(3-(benzyloxy)-2-hydroxypropyl)-N,N-diethyl-9-fluoro-5-methyl-4-oxo-4,5-dihydro-3H-pyridazino[4,5-b]indole-1-carboxamide] the same measures were 30 to 80% and less than 10 µM. Regarding `CCN(C(=O)Cn1nc(Cc2cccnc2)c2cc(C)ccc2c1=O)c1ccc2c(c1)OC(F)(F)O2` [Example 46, N-(2,2-difluorobenzo[d][1,3]dioxol-5-yl)-N-ethyl-2-(6-methyl-1-oxo-4-(pyridin-3-ylmethyl)phthalazin-2(1H)-yl)acetamide], the Emax is 30 to 80%. As for `CCN(C(=O)c1nn(C)c(=O)c2c1c1ccccc1n2C)c1ccccc1` [Example 207, N-ethyl-3,5-dimethyl-4-oxo-N-phenyl-4,5-dihydro-3H-pyridazino[4,5-b]indole-1-carboxamide], the Emax lay within 30 to 80% and the 50% effective concentration (EC50) was less than 10 µM. For `CCN(C(=O)c1nn(C[C@@H](O)COCc2ccccc2)c(=O)c2c1c1ccccc1n2C)c1ccccc1` [Example 230, (R)-3-(3-(benzyloxy)-2-hydroxypropyl)-N-ethyl-5-methyl-4-oxo-N-phenyl-4,5-dihydro-3H-pyridazino[4,5-b]indole-1-carboxamide] the same measures were 30 to 80% and less than 10 µM. For the compound `CCc1ccc(N(CC)C(=O)Cn2nc(-c3ccccc3)c3ccccc3c2=O)cc1` [Example 1, N-ethyl-N-(4-ethylphenyl)-2-(1-oxo-4-phenylphthalazin-2(1H)-yl)acetamide], the Emax lay in the range of 10 to 30%. On the same count and under the same terms, to `CCN(C(=O)Cn1nc(-c2ccc(S(N)(=O)=O)cc2)c2ccc(OC)cc2c1=O)c1ccc2c(c1)OC(F)(F)O2` [Example 72, N-(2,2-difluorobenzo[d][1,3]dioxol-5-yl)-N-ethyl-2-(7-methoxy-1-oxo-4-(4-sulfamoylphenyl)phthalazin-2(1H)-yl)-acetamide] belongs greater than 80%. Still for that read-out and setting: the same measure for `CCc1ccc(N(CC)C(=O)Cn2nc(-c3cccc4cnccc34)c3ccccc3c2=O)cc1` [Example 6, N-ethyl-N-(4-ethylphenyl)-2-(4-(isoquinolin-5-yl)-1-oxophthalazin-2(1H)-yl)acetamide]: 30 to 80%.

Turning to `CN(C(=O)Cn1nc(-c2cccc(C#N)c2)c2ccc(O)cc2c1=O)c1ccc2c(c1)OC(F)(F)O2` [Example 102, 2-(4-(3-cyanophenyl)-7-hydroxy-1-oxophthalazin-2(1H)-yl)-N-(2,2-difluorobenzo[d][1,3]dioxol-5-yl)-N-methylacetamide], the Emax is greater than 80% and the 50% effective concentration (EC50) was less than 10 µM.

`CCN(C(=O)c1nn(-c2cccnc2)c(=O)c2c1c1ccccc1n2C)c1ccccc1` [Example 168]: the Emax was 30 to 80%. Same read-out and setting: the same measure for `COc1ccc2c(-c3ccc(S(N)(=O)=O)cc3)nn(CC(=O)N(c3ccc4c(c3)OC(F)(F)O4)C3CC3)c(=O)c2c1` [Example 78, N-cyclopropyl-N-(2,2-difluorobenzo[d][1,3]dioxol-5-yl)-2-(7-methoxy-1-oxo-4-(4-sulfamoylphenyl)phthalazin-2(1H)-yl)acetamide]: 30 to 80%; for `CCN(C(=O)c1nn(-c2ccccn2)c(=O)c2c1c1ccccc1n2C)c1ccccc1` [Example 167, N-ethyl-5-methyl-4-oxo-N-phenyl-3-(pyridin-2-yl)-4,5-dihydro-3H-pyridazino[4,5-b]indole-1-carboxamide]: 30 to 80%; for `CCN(CC)C(=O)c1nn(CC(=O)N(CC)c2ccc3c(c2)OC(F)(F)O3)c(=O)c2c1c1ccccc1n2C` [Example 206, 3-(2-((2,2-difluorobenzo[d][1, 3]dioxol-5-yl)(ethyl)amino)-2-oxoethyl)-N,N-diethyl-5-methyl-4-oxo-4,5-dihydro-3H-pyridazino[4,5-b]indole-1-carboxamide]: 30 to 80%. In the case of `CCN(C(=O)Cn1ncc2c(c1=O)c1ccccc1n2CCOC)c1ccc2c(c1)OC(F)(F)O2` [Example 132, N-(2,2-difluorobenzo[d][1,3]dioxol-5-yl)-N-ethyl-2-(5-(2-methoxyethyl)-1-oxo-1H-pyridazino[4,5-b]indol-2(5H)-yl)acetamide], the Emax was 30 to 80%. `CCc1ccc(N(CC)C(=O)Cn2nc(Cc3cccnc3)c3cc(C)ccc3c2=O)cc1` [Example 29, N-ethyl-N-(4-ethylphenyl)-2-(6-methyl-1-oxo-4-(pyridin-3-ylmethyl)phthalazin-2(1H)-yl)acetamide]: the Emax lay in the range of 30 to 80%. Regarding `CCN(C(=O)c1nn(-c2ccc(C)cc2)c(=O)c2c1c1c(OC)cccc1n2C)c1ccccc1` [Example 195, N-ethyl-9-methoxy-5-methyl-4-oxo-N-phenyl-3-(p-tolyl)-4,5-dihydro-3H-pyridazino[4,5-b]indole-1-carboxamide], the Emax was 30 to 80% and the 50% effective concentration (EC50) was less than 10 µM.

As to `CCc1ccc(N(CC)C(=O)Cn2nc(Cc3cccnc3)c3cc(OC)c(OC)cc3c2=O)cc1` [Example 32, 2-(6,7-dimethoxy-1-oxo-4-(pyridin-3-ylmethyl)phthalazin-2(1H)-yl)-N-ethyl-N-(4-ethylphenyl)acetamide], the Emax lay in the range of 10 to 30%. On to `CCN(C(=O)Cn1ncc2c(c1=O)c1ccccc1n2Cc1ccc(C#N)c(F)c1)c1ccc2c(c1)OC(F)(F)O2` [Example 145, 2-(5-(4-cyano-3-fluorobenzyl)-1-oxo-1H-pyridazino[4,5-b]indol-2(5H)-yl)-N-(2,2-difluorobenzo[d][1,3]dioxol-5-yl)-N-ethylacetamide], for which the Emax lay within 30 to 80% and the EC50 is less than 10 µM. Turning to `CCc1ccc(N(CC)C(=O)Cn2nc(Cc3cccnc3)c3cccc(C)c3c2=O)cc1` [Example 30, N-ethyl-N-(4-ethylphenyl)-2-(8-methyl-1-oxo-4-(pyridin-3-ylmethyl)phthalazin-2(1H)-yl)acetamide], the Emax is 30 to 80%.
